From US9072778B2, “Treatment regimen for N-MYC, c-MYC, and L-MYC amplified and overexpressed tumors” (UNIVERSITY OF HAWAII, priority 2005, dated 2015)

Legend:
NMB-7 cells = experiment: Cell growth and proliferation (cell number) and morphology, NMB-7; format: cell-based, human; conditions: NMB-7, 3 days; 5 mM DFMO, 10 μM SAM486A
Procedure: (§1) Cell numbers are expressed as percentage (%) of control cell growth and proliferation. Each sample was measured in duplicate and the data represent the mean of three separate determinations±SD. The observed growth and proliferation inhibition of LAN-1 and NMB-7 cells was accompanied by dramatic alterations in cell morphology (FIG. 4b). […] On day 3, both untreated and treated cells were washed free of inhibitor by washing twice with PBS, reseeded in new medium (NM) (solid black arrow) without inhibitors at the starting cell density (dashed black arrow) and the experiment was continued for an additional 7 days. While the untreated LAN-1 and NMB-7 cells grew normally and reached similar cell densities after an additional 3 days (day 6 of the experiment), the initially treated LAN-1 and NMB-7 cells resumed proliferation only slowly and reached about 30% and 58% of control cell growth and proliferation, respectively, on day 10 of the experiment (FIG. 6). Cell numbers were determined using a hemocytometer and trypan blue reagent, and each data point is representative of three separate determinations±SD. […] (not shown). Human NB cell lines were provided by Dr. Robert Seeger (LAN-1; University of California, Los Angeles, Calif.), Dr. Nai-Kong Cheung (NMB-7; Memorial Sloan-Kettering Cancer Center, NY), and the American Type Culture Collection (SK-N-SH; ATCC, Manassas, Va.). […]

ODC = target: T1, ODC (Homo sapiens, UniProt P11926); experiment: ODC activity after preincubation of cell extracts with DFMO; format: biochemical; conditions: extracts from untreated or DFMO-treated LAN-1 cells, 100 μM DFMO, 30 min at 37° C.
T1 construct: enzyme activities were measured in cell lysates; endogenous in cells
T1 sequence (P11926 1-461): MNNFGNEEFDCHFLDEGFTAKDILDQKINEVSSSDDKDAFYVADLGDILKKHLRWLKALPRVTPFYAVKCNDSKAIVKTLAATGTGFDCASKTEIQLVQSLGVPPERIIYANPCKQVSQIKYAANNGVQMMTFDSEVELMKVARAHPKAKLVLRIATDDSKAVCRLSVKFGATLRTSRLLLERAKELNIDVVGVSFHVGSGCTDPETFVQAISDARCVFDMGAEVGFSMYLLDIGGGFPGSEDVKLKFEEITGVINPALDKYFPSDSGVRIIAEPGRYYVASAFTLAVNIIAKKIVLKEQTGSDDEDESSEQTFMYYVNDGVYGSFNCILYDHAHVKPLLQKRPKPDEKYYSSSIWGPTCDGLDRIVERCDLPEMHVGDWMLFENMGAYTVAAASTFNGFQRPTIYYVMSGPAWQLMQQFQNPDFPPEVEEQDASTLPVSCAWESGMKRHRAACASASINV
Procedure: ODC and AdoMetDC enzyme activities were determined using a standard assay known in the art. In brief, NB cells were washed twice with ice-cold PBS and harvested in 50 mM sodium phosphate buffer (pH 7.2), 0.1 mM EDTA, 2.5 mM DTT, supplemented with 1× protease inhibitor cocktail (Roche Molecular Biochemicals, Indianapolis, Ind.). […] Cells were lysed by three freeze/thaw cycles and cell lysates were prepared by centrifugation for 20 minutes at 14,000 rpm and 4° C. ODC activity was measured in a reaction mixture that contained 20 μM L-[1-^14C]ornithine (47.70 mCi/mmol; NEN Life Science Products, Boston, Mass.).

LAN-1 cells = experiment: Cell growth and proliferation (cell number) and morphology, LAN-1; format: cell-based, human; conditions: LAN-1, 3 days; 5 mM DFMO, 10 μM SAM486A
Procedure: as §1

[1] = SAM486A, Phase II, relapsed or refractory non-Hodgkin's lymphoma; cited from earlier work

Row | SMILES | cell morphology (FIG. 4b) (NMB-7 cells) | ODC activity after preincubation of extracts (ODC) | cell morphology (FIG. 4b) (LAN-1 cells) | most frequent side effects [1]
1 | NCCC[C@](N)(C(=O)O)C(F)F [DFMO, α-difluoromethylornithine] | formed large polynucleate cell aggregates with only very short extensions | complete loss of ODC activity | changed into spindle-like cells with neurite-like extensions | –
2 | N=C(N)c1cccc2c1CC/C2=N\N=C(N)N [SAM486A, 4-amidinoindan-1-one 2′-amidinohydrazone] | – | – | – | nausea, vomiting, diarrhea, asthenia, abdominal pain, and flushing
